According to patent US20090264371A1, “ANTIPROLIFERATIVE PEPTIDES AND ANTIBODIES FOR THEIR DETECTION” (BIOINCEPT LLC, priority 2004, published 2009):

Assays:
[1] = test system: renal carcinoma cells (RCC); test: Viability of short-term cultured renal carcinoma cells (P1 and JC-1 staining); format: cell-based
Protocol: Mitochondrial membrane potential. A stock solution of JC-1 dye (100 μg/ml in DMSO) is prepared. Cells are preincubated with the peptide of SEQ ID NO: 2 for up to 24 hours. JC-1 reagent is diluted just prior to use. For each assay, 100 μl of stock solution is diluted to 1 ml using pre-warmed cell culture medium and the solution is vortexed. 40 μl of diluted JC-1 is added to each well and incubated at 37° C. in 5% CO2 incubator for 25-30 min. Medium is replaced with pre-warmed PBS. Samples are detected by fluorescent signals by using flow cytometry results compared to buffer only treated controls. JC-1 reagent accumulates in the intact mitochondria, giving off a bright red fluorescence. In apoptotic cells, JC-1 reagent cannot accumulate in the mitochondria due to the altered mitochondrial membrane potential.
FIG. 2 further confirms developmental peptides effectiveness as compared to chemotherapy. Short-term cultured renal carcinoma cells (RCC) were incubated with developmental peptides. […] While not wishing to be bound to theory, the anti-proliferative effect of developmental peptides is thought to be due to the developmental peptides induction of mitochondrial alterations in the malignant cells, as analyzed using JC-1 staining, a process which invariably leads to cell death. […] Thus, low concentrations of developmental peptides may enhance the efficacy of a chemotherapy regimen.

[2] = test system: renal cancer cells (surgical specimen); test: Proliferation of cells from a surgical renal cancer specimen; format: cell-based; conditions: about 24-30 hrs; chemotherapies at high concentrations of approximately 10-100 fold
Protocol: Cells were incubated with purified developmental peptides for approximately 24-30 hrs. While developmental peptides were effective in inhibiting proliferation of the renal cancer cells, two standardly used chemotherapies (a 5-FU regimen and a vinblastine regimen) remained ineffective, even at a high concentrations of approximately 10-100 fold.

[3] = test system: MCF-7 breast cancer cells; test: 3H thymidine incorporation assay on MCF-7 cells; format: cell-based; conditions: about 1.5-12 mg/ml, low concentrations
Protocol: Isolation of the 9AA peptide from the adult mammalian liver. Fresh adult rabbit liver tissues were collected and homogenized on ice with H20. The samples were centrifuged at 15,000 g and the sample was filtered using Amicon filters 3000-10000 Da, <3000-500, and <500. Fractions collected were tested for activity using the MCF-7 cells. […] Separation by reverse phase HPLC yielded a 90% inhibition of cancer cells.
In a similar manner adult frozen porcine liver was collected and homogenized with H2O at 4° C. The suspension was centrifuged at 15,000 g and the pellet discarded. The suspension was filtered and the fraction <3000 Da was collected and run using reversed phase HPLC C18 column with a 0-95% acetonitrile gradient. […] Antiproliferative activity was tested by collecting the fractions, drying and suspending the sample in media and adding to MCF7 cells for 48 hours. Incorporation of 3H thymidine into cellular DNA of MCF-7 breast cancer cells was used to determine the anti-proliferative activity.
3H Thymidine assay. […] Cell from each well were transferred to a scintillation vial and counted in a Beckman Counter Model LS-133 scintillation counter.
A breast cancer cell line (MCF-7) and human mammary epithelial cells (HMEC) were incubated with the 9 AA developmental peptides of SEQ ID NO: 2. […] The antiproliferative response was repeated and analyzed using the XTT method. […]

[4] = test system: human mammary epithelial cells (HMEC); test: 3H thymidine labeling of DNA in normal HMEC cells; format: cell-based; conditions: about 1.5-12 mg/ml, low concentrations
Protocol: 3H Thymidine assay. In particular the tritiated thymidine assays were performed as follows. 10,000 cells were plated in 1 ml of RPMI 1640 medium containing 10% fetal bovine serum in 24-well plates. The cultures were incubated for 24 hours at 37 C, 5% carbon dioxide. The peptide was added to each corresponding well at different doses and allowed to incubate for 72 hours. The cells were then exposed to tritiated thymidine at a concentration of 1 uCi/ml (ICN, cat #2403905) and incubated at 37 C for 4 hours. The cells were washed twice with cold PBS to remove non-incorporated thymidine. The cells were treated twice with 10% trichloracetic acid (Fisher, lot #94276913), 1 ml per well. The cells were then disrupted by treatment with 10% sodium lauryl sulfate (Sigma, Cat#L-3771) at 500 ul/well. Cell from each well were transferred to a scintillation vial and counted in a Beckman Counter Model LS-133 scintillation counter.
A breast cancer cell line (MCF-7) and human mammary epithelial cells (HMEC) were incubated with the 9 AA developmental peptides of SEQ ID NO: 2. 3H thymidine labeling of DNA was used to analyze the anti-proliferative effect of developmental peptides using concentrations in the range of about 1.5-12 mg/ml developmental peptides. […] The antiproliferative response was repeated and analyzed using the XTT method. […]

MCF-7 cells = test: XTT method on MCF-7 cells; format: cell-based; conditions: about 1.5 mg/ml
Protocol: (§1) XTT method. A commercial (Roche, N.J.) kit was used. At the end of the experiment the XTT labeling mixture was coupled to the electron reagent coupling and was added to the cultured cells in microplate for 4 hours. The microplate was placed in an ELISA microplate reader (Molecular devices, Menlo Park, Calif.).
(§2) A breast cancer cell line (MCF-7) and human mammary epithelial cells (HMEC) were incubated with the 9 AA developmental peptides of SEQ ID NO: 2. 3H thymidine labeling of DNA was used to analyze the anti-proliferative effect of developmental peptides using concentrations in the range of about 1.5-12 mg/ml developmental peptides. […] The antiproliferative response was repeated and analyzed using the XTT method. […] Finally, this same analysis was repeated using resistant prostate cancer cells, the PC3 cell line, which are androgen receptor negative cells. Developmental peptides was added to the cells using concentrations of about 6-25 mg/ml for 24 hours in the presence of 3H thymidine to measure the effect of developmental peptides on cell proliferation.

rat embryo cultures = test: Rat embryo culture teratogenicity (roller bottle system); conditions: 48 hours, about 500 μg/ml
Protocol: Rat embryo cultures were exposed to synthetic developmental peptides of about 9 AA (about 500 μg/ml) for 48 hours (FIG. 6).

HMEC cells = test: XTT method on HMEC cells; format: cell-based, human; conditions: about 1.5 mg/ml
Protocol: as §1, §2

[5] = test system: PC3 cell line (androgen receptor negative prostate cancer cells); format: cell-based; conditions: about 12-25 mg/ml, 24 hours

## CC(=O)O[C@H]1C(=O)[C@@]2(C)[C@H]([C@H](OC(=O)c3ccccc3)[C@]3(O)C[C@H](OC(=O)[C@H](O)[C@@H](NC(=O)c4ccccc4)c4ccccc4)C(C)=C1C3(C)C)[C@]1(OC(C)=O)CO[C@@H]1C[C@@H]2O [paclitaxel]
[1]
  cell viability / cell death in RCC, P1 staining: failed to induce cell death

## CC[C@]1(O)C[C@@H]2CN(CCc3c([nH]c4ccccc34)[C@@](C(=O)OC)(c3cc4c(cc3OC)N(C)[C@H]3[C@@](O)(C(=O)OC)[C@H](OC(C)=O)[C@]5(CC)C=CCN6CC[C@]43[C@@H]65)C2)C1 [vinblastine]
[2]
  inhibition of renal cancer cell proliferation: ineffective

## CN(Cc1cnc2nc(N)nc(N)c2n1)c1ccc(C(=O)N[C@@H](CCC(=O)O)C(=O)O)cc1 [methotrexate]
[1]
  cell viability / cell death in RCC, P1 staining: failed to induce cell death

## COc1cc([C@@H]2c3cc4c(cc3[C@@H](O[C@@H]3O[C@@H]5CO[C@@H](C)O[C@H]5[C@H](O)[C@H]3O)[C@H]3COC(=O)[C@H]23)OCO4)cc(OC)c1O [etoposide]
[1]
  cell viability / cell death in RCC, P1 staining: failed to induce cell death

## O=c1[nH]cc(F)c(=O)[nH]1 [5-FU]
[2]
  inhibition of renal cancer cell proliferation: ineffective

## H-VLGKRIKGT-OH [9 AA developmental peptides, N-Val-Leu-Gly-Lys-Arg-Ile-Lys-Gly-Thr-OH]
[3]
  antiproliferative response, 3H thymidine: antiproliferative response was maintained
[4]
  effect on normal HMEC cells, 3H thymidine: absence of any harmful or negative effect
MCF-7 cells
  antiproliferative effect, XTT: maintained the antiproliferative effect
Rat embryo cultures
  development of viscera yolk sac and embryo: developed normally
  teratogenicity: not teratogenic
HMEC cells
  effect on HMEC cells, XTT: minimal effect
[5]
  inhibition of PC3 proliferation, 3H thymidine: approximately 98%
